# Read-outs that look alike come from different tables or passages of the source.
# Tests used:
# [1] = target: AEA-DA lipid probe targets in Neuro2a cells (Mus musculus, UniProt P06795)
# [2] = target: T1, AEA-DA lipid probe targets in Neuro2a cells (Mus musculus, UniProt P48678)
# T1 sequence (P48678 1-665): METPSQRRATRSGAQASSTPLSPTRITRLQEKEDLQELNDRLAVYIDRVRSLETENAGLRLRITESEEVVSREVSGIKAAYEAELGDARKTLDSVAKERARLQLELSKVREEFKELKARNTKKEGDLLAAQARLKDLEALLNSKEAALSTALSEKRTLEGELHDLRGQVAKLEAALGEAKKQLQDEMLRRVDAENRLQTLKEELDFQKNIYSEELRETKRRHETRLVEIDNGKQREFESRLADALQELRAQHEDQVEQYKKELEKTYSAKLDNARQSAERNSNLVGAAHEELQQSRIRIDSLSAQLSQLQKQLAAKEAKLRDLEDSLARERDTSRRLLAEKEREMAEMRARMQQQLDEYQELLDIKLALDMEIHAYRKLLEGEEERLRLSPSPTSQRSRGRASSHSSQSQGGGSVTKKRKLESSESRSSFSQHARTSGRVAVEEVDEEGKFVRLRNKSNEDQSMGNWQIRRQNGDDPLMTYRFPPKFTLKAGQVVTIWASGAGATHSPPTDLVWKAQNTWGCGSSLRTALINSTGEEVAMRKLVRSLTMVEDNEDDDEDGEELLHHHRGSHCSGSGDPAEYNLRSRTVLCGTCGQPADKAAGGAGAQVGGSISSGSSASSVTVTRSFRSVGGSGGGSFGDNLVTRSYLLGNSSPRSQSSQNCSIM
# [3] = target: AEA-DA lipid probe targets in Neuro2a cells (Mus musculus, UniProt P53994)
# Chain of AEA-DA lipid probe targets in Neuro2a cells (Mus musculus, UniProt P53994) (P53994 whole entry): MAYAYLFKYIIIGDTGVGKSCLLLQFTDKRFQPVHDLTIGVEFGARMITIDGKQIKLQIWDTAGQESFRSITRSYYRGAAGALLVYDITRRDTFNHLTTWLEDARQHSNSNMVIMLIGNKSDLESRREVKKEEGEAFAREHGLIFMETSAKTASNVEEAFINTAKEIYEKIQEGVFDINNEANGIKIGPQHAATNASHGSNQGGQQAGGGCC
# [4] = target: T2, AEA-DA lipid probe targets in Neuro2a cells (Mus musculus, UniProt P81117)
# T2 sequence (P81117 25-420): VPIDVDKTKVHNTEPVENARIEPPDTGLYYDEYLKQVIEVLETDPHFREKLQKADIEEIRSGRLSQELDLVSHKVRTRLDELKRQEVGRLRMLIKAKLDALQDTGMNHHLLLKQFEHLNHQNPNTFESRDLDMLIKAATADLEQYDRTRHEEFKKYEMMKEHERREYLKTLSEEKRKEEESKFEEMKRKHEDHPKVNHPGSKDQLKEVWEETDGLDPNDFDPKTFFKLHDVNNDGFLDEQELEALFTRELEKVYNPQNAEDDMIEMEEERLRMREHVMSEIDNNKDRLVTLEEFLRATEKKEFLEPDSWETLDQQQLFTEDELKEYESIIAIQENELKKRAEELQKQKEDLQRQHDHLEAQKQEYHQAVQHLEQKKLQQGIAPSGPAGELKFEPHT
# [5] = target: T3, AEA-DA lipid probe targets in Neuro2a cells (Mus musculus, UniProt Q8C0L0)
# T3 sequence (Q8C0L0 21-335): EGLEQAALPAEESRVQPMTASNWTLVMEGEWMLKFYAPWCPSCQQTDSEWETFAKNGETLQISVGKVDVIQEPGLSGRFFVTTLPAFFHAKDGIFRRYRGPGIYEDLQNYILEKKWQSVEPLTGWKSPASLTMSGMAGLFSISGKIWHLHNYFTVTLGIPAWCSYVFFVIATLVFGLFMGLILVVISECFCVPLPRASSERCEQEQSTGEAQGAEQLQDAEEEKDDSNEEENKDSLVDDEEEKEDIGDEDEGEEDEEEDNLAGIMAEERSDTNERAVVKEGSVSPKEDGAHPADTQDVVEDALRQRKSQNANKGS
# [6] = target: T4, AEA-DA lipid probe targets in Neuro2a cells (Mus musculus, UniProt Q8VDP6)
# T4 sequence (Q8VDP6 1-213): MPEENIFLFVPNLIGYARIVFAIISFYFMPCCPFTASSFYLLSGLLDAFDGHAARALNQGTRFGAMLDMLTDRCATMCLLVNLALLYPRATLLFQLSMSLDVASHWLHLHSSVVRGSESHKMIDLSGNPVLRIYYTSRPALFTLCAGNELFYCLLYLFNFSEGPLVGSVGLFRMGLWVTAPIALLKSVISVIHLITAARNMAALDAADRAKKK
# [7] = target: T5, AEA-DA lipid probe targets in Neuro2a cells (Mus musculus, UniProt Q99JY4); conditions: for SILAC ratio, TRABD (Q99JY4): Neuro2a cells, AEA-DA probe
# T5 sequence (Q99JY4 1-376): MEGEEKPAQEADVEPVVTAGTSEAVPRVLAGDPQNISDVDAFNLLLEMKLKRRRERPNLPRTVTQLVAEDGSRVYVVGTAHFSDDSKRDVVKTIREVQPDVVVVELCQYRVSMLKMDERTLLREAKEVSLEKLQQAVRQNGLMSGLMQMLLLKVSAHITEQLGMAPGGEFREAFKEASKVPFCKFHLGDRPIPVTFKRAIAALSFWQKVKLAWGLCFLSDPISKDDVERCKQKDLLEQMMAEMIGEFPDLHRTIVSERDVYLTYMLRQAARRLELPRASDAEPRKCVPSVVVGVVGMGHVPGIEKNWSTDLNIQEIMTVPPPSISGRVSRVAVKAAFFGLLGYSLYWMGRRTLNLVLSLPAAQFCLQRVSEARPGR
# [8] = target: AEA-DA lipid probe targets in Neuro2a cells (Mus musculus, UniProt Q9Z2G6)
# Chain of AEA-DA lipid probe targets in Neuro2a cells (Mus musculus, UniProt Q9Z2G6) (Q9Z2G6 22-790): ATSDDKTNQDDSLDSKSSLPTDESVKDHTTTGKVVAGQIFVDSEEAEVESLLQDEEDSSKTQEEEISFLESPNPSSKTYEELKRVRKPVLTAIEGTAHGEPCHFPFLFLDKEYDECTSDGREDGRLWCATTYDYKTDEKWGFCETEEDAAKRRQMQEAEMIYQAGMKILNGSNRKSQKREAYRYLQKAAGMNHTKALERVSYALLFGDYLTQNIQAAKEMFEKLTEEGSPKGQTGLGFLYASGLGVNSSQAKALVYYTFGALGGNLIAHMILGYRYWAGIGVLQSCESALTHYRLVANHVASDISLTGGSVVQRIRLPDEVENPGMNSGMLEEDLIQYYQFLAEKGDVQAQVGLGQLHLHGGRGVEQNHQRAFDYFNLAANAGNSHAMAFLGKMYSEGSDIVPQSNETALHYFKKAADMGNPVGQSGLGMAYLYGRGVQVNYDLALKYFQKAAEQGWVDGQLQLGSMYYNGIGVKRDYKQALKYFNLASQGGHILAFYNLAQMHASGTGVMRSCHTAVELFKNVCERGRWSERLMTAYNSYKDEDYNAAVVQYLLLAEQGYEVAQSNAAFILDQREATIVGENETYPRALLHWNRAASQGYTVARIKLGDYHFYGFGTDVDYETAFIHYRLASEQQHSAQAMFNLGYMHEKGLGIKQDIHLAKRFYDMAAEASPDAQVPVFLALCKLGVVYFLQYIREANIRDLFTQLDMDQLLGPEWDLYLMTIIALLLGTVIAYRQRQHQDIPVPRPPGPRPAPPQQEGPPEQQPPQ
# Chain of AEA-DA lipid probe targets in Neuro2a cells (Mus musculus, UniProt P06795) (P06795 whole entry): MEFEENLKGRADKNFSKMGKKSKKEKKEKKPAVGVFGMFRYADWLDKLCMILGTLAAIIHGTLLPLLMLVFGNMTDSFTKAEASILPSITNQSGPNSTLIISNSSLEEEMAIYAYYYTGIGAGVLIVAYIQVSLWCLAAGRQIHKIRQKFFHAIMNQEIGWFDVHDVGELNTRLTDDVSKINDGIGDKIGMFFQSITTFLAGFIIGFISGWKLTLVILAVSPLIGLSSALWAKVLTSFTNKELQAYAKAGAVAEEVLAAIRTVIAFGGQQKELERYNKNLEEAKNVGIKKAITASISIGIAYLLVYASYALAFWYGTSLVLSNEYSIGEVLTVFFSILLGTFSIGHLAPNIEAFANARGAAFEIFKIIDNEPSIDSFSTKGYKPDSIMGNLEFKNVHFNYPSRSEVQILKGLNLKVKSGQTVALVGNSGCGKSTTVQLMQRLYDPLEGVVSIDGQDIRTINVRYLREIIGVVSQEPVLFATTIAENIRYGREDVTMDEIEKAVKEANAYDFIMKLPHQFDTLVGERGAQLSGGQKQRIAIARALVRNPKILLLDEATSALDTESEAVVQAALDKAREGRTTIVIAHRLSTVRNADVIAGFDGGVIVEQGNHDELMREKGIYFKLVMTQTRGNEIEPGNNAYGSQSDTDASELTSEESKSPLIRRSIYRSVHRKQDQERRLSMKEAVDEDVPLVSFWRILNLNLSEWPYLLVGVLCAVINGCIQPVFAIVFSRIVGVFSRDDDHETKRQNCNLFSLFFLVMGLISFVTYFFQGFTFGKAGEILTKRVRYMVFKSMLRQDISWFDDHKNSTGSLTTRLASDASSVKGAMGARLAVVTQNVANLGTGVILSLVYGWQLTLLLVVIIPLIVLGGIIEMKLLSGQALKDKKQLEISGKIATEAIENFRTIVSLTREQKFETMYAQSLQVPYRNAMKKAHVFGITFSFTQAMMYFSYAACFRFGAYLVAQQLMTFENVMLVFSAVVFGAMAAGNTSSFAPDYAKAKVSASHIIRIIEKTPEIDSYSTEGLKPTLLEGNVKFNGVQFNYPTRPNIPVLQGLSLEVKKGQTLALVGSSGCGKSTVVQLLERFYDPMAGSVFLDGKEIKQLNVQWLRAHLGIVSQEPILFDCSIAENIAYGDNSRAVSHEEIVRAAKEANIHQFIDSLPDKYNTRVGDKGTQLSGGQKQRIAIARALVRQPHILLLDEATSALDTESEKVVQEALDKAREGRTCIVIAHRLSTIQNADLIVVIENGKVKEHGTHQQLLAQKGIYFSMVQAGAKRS
smiles,measurement,setting,value
"CCCCC/C=C\C/C=C\C/C=C\C/C=C\CCCC(=O)NCCO [AEA, anandamide, reference compound]","SILAC ratio, Abcb1b",[1]; competitor 200 μM,2.3
same,SILAC ratio Lmna,[2]; competitor 200 μM,1.1
same,SILAC ratio Rab2a,[3]; competitor 200 μM,1.3
same,"SILAC ratio, Nucb2",[4]; competitor 200 μM,1.5
same,SILAC ratio Tmx4,[5]; competitor 200 μM,1.9
same,"SILAC ratio, Cdipt",[6]; competitor 200 μM,1.8
same,"SILAC ratio, TRABD (Q99JY4)",[7]; competitor 200 μM,1.0
same,"SILAC ratio, Trabd",[7]; competitor 200 μM,1.0
same,"SILAC ratio, Sel1l",[8]; competitor 200 μM,1.6
"O=C(/C=C/c1cccnc1)NCCCCC1CCN(C(=O)c2ccccc2)CC1 [FK-866, reference compound]","SILAC ratio, Abcb1b",[1]; competitor 25 μM,5.4
same,SILAC ratio Lmna,[2]; competitor 25 μM,1.2
same,SILAC ratio Rab2a,[3]; competitor 25 μM,1.2
same,"SILAC ratio, Nucb2",[4]; competitor 25 μM,1.1
same,SILAC ratio Tmx4,[5]; competitor 25 μM,1.0
same,"SILAC ratio, Cdipt",[6]; competitor 25 μM,1.1
same,"SILAC ratio, TRABD (Q99JY4)",[7]; competitor 25 μM,1.2
same,"SILAC ratio, Trabd",[7]; competitor 25 μM,1.2
same,"SILAC ratio, Sel1l",[8]; competitor 25 μM,1.4
"CN1CCN(C(=O)c2c(-c3ccccc3)c3cc([N+](=O)[O-])ccc3n2C)CC1 [KML110, (1-Methyl-5-nitro-3-phenyl-1H-indol-2-yl)(4-methylpiperazin-1-yl)methanone]","SILAC ratio, Abcb1b",[1]; competitor 25 μM,5.7
same,SILAC ratio Lmna,[2]; competitor 25 μM,1.3
same,SILAC ratio Rab2a,[3]; competitor 25 μM,1.3
same,"SILAC ratio, Nucb2",[4]; competitor 25 μM,2.0
same,SILAC ratio Tmx4,[5]; competitor 25 μM,1.4
same,"SILAC ratio, Cdipt",[6]; competitor 25 μM,0.9
same,"SILAC ratio, Trabd",[7]; competitor 25 μM,1.5
same,"SILAC ratio, Sel1l",[8]; competitor 25 μM,1.5
"CN1CCN(C(=O)c2[nH]c3ccc([N+](=O)[O-])cc3c2-c2ccccc2)CC1 [MJN228, (4-Methylpiperazin-1-yl)(5-nitro-3-phenyl-1H-indol-2-yl)methanone]","SILAC ratio, Abcb1b",[1]; competitor 10 μM,2.6
same,"SILAC ratio, Abcb1b",[1]; competitor 25 μM,4.0
same,"SILAC ratio, Abcb1b",[1]; competitor 50 μM,9.4
same,"SILAC ratio, Abcb1b",[1]; competitor 100 μM,20.0
same,SILAC ratio Lmna,[2]; competitor 10 μM,1.3
same,SILAC ratio Lmna,[2]; competitor 25 μM,1.1
same,SILAC ratio Lmna,[2]; competitor 50 μM,1.3
same,SILAC ratio Lmna,[2]; competitor 100 μM,1.5
same,SILAC ratio Rab2a,[3]; competitor 10 μM,1.4
same,SILAC ratio Rab2a,[3]; competitor 25 μM,1.5
same,SILAC ratio Rab2a,[3]; competitor 50 μM,1.6
same,SILAC ratio Rab2a,[3]; competitor 100 μM,1.6
same,"SILAC ratio, Nucb2",[4]; competitor 10 μM,1.4
same,"SILAC ratio, Nucb2",[4]; competitor 25 μM,1.6
same,"SILAC ratio, Nucb2",[4]; competitor 50 μM,2.1
same,"SILAC ratio, Nucb2",[4]; competitor 100 μM,2.9
same,SILAC ratio Tmx4,[5]; competitor 10 μM,1.0
same,SILAC ratio Tmx4,[5]; competitor 25 μM,1.3
same,SILAC ratio Tmx4,[5]; competitor 50 μM,1.3
same,SILAC ratio Tmx4,[5]; competitor 100 μM,1.6
same,"SILAC ratio, Cdipt",[6]; competitor 10 μM,1.0
same,"SILAC ratio, Cdipt",[6]; competitor 25 μM,1.0
same,"SILAC ratio, Cdipt",[6]; competitor 50 μM,0.7
same,"SILAC ratio, Cdipt",[6]; competitor 100 μM,0.8
same,"SILAC ratio, TRABD (Q99JY4)",[7]; competitor 25 μM,1.3
same,"SILAC ratio, Trabd",[7]; competitor 10 μM,1.1
same,"SILAC ratio, Trabd",[7]; competitor 25 μM,1.3
same,"SILAC ratio, Trabd",[7]; competitor 50 μM,1.4
same,"SILAC ratio, Trabd",[7]; competitor 100 μM,1.7
same,"SILAC ratio, Sel1l",[8]; competitor 10 μM,1.2
same,"SILAC ratio, Sel1l",[8]; competitor 25 μM,1.5
same,"SILAC ratio, Sel1l",[8]; competitor 50 μM,1.5
same,"SILAC ratio, Sel1l",[8]; competitor 100 μM,1.9
"C=CCN(C)CCCCCCOc1ccc(C(=O)c2ccc(Br)cc2)c(F)c1 [Ro 48-8071, reference compound]","SILAC ratio, Abcb1b",[1]; competitor 25 μM,1.7
same,SILAC ratio Lmna,[2]; competitor 25 μM,1.1
same,SILAC ratio Rab2a,[3]; competitor 25 μM,1.1
same,"SILAC ratio, Nucb2",[4]; competitor 25 μM,0.8
same,SILAC ratio Tmx4,[5]; competitor 25 μM,1.2
same,"SILAC ratio, Cdipt",[6]; competitor 25 μM,0.7
same,"SILAC ratio, TRABD (Q99JY4)",[7]; competitor 25 μM,1.0
same,"SILAC ratio, Trabd",[7]; competitor 25 μM,1.0
same,"SILAC ratio, Sel1l",[8]; competitor 25 μM,1.2

# Reference: patent publication US10168342B2, “Lipid probes and uses thereof” (THE SCRIPPS RESEARCH INSTITUTE, priority 2015, dated 2019)
